Measured values taken from patent US6737383B1, “Herbicidal oxadiazolidines” (priority 1999, dated 2004).

Experiments:
Details in all cases: Preemergence
bedstraw = experiment: Test B pre/postemergence bedstraw; assay type: in vivo, Galium aparine
Method in brief: (§1)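 Test chemicals in a non-phytotoxic solvent mixture with surfactant were sprayed preemergence onto planted seeds and postemergence onto plants 2 to 18 cm tall (1- to 4-leaf stage). After twelve to sixteen days in a greenhouse, injury was visually rated against untreated controls from 0 (no effect) to 10 (complete control).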

blackgrass = experiment: Test B pre/postemergence blackgrass; assay type: in vivo, Alopecurus myosuroides
Method in brief: as §1

surinam grass = experiment: Test B pre/postemergence surinam grass; assay type: in vivo, Brachiaria decumbens
Method in brief: as §1

cocklebur = experiment: Test B pre/postemergence cocklebur; assay type: in vivo, Xanthium strumarium
Method in brief: as §1

corn = experiment: Test B pre/postemergence corn; assay type: in vivo, Zea mays
Method in brief: as §1

crabgrass = experiment: Test B pre/postemergence crabgrass; assay type: in vivo, Digitaria sanguinalis
Method in brief: as §1

giant foxtail = experiment: Test B pre/postemergence giant foxtail; assay type: in vivo, Setaria faberii
Method in brief: as §1

morningglory = experiment: Test B pre/postemergence morningglory; assay type: in vivo, Ipomoea hederacea
Method in brief: as §1

pigweed = experiment: Test B pre/postemergence pigweed; assay type: in vivo, Amaranthus retroflexus
Method in brief: as §1

rape = experiment: Test B pre/postemergence rape; assay type: in vivo, Brassica napus
Method in brief: as §1

soybean = experiment: Test B pre/postemergence soybean; assay type: in vivo, Glycine max
Method in brief: as §1

sugar beet = experiment: Test B pre/postemergence sugar beet; assay type: in vivo, Beta vulgaris
Method in brief: as §1

velvetleaf = experiment: Test B pre/postemergence velvetleaf; assay type: in vivo, Abutilon theophrasti
Method in brief: as §1

wheat = experiment: Test B pre/postemergence wheat; assay type: in vivo, Triticum aestivum
Method in brief: as §1

wild oat = experiment: Test B pre/postemergence wild oat; assay type: in vivo, Avena fatua
Method in brief: as §1

purple nutsedge = experiment: Test B pre/postemergence purple nutsedge; assay type: in vivo, Cyperus rotundus
Method in brief: as §1

[1] = Rate 125 g/ha, scale of 0 to 10 where 0 is no effect and 10 is complete control
[2] = Rate 250 g/ha, scale 0 (no effect) to 10 (complete control)
[3] = Rate 500 g/ha, scale 0 to 10 (0 no effect, 10 complete control)

In the case of `CC(C)N(C(=O)n1oc(=O)n(CBr)c1=O)c1ccccc1` [Compound 755], the “Plant response rating, Bedstraw” value (bedstraw; [1]) is reported as 0, the “Bedstraw plant response rating” value (bedstraw; [2]) is reported as 0 and the “Bedstraw plant response rating” value (bedstraw; Rate 62 g/ha, scale 0 to 10) is reported as 0. For the same molecule, the “Bedstraw plant response rating” value (bedstraw; [3]) was 0, the “Plant response rating, Blackgrass” value (blackgrass; [1]) was 0 and the “Blackgrass plant response rating” value (blackgrass; [2]) was 0. The “Blackgrass plant response rating” value (blackgrass; Rate 62 g/ha, scale 0 to 10) was 0, the “Blackgrass plant response rating” value (blackgrass; [3]) was 0 and the “B. signalgrass plant response rating” value (surinam grass; Rate 62 g/ha, scale of 0 to 10 where 0 is no effect and 10 is complete control) was 0. The “Plant response rating, B. signalgrass” value (surinam grass; [1]) was 0, the “B. signalgrass plant response rating” value (surinam grass; [2]) was 0 and the “B. signalgrass plant response rating” value (surinam grass; [3]) was 0. For the same molecule, the “Plant response rating, Cocklebur” value (cocklebur; [1]) was 0, the “Cocklebur plant response rating” value (cocklebur; [2]) was 0 and the “Cocklebur plant response rating” value (cocklebur; Rate 62 g/ha, scale 0 to 10) was 0. The “Cocklebur plant response rating” value (cocklebur; [3]) was 0, the “Plant response rating, Corn” value (corn; [1]) was 0 and the “Corn plant response rating” value (corn; [2]) was 0. For the same molecule, the “Corn plant response rating” value (corn; Rate 62 g/ha, scale 0 to 10) was 0, the “Corn plant response rating” value (corn; [3]) was 0 and the “Plant response rating, Crabgrass” value (crabgrass; [1]) was 0. The “Crabgrass plant response rating” value (crabgrass; [2]) was 0, the “Crabgrass plant response rating” value (crabgrass; Rate 62 g/ha, scale 0 to 10) was 0 and the “Crabgrass plant response rating” value (crabgrass; [3]) was 0. The “Plant response rating, Giant foxtail” value (giant foxtail; [1]) was 0, the “Giant foxtail plant response rating” value (giant foxtail; [2]) was 0 and the “Giant foxtail plant response rating” value (giant foxtail; Rate 62 g/ha, scale 0 to 10) was 0. For the same molecule, the “Giant foxtail plant response rating” value (giant foxtail; [3]) was 2, the “Plant response rating, Morningglory” value (morningglory; [1]) was 0 and the “Morningglory plant response rating” value (morningglory; [2]) was 0. The “Morningglory plant response rating” value (morningglory; Rate 62 g/ha, scale 0 to 10) was 0, the “Morningglory plant response rating” value (morningglory; [3]) was 0 and the “Plant response rating, Redroot pigweed” value (pigweed; [1]) was 0. For the same molecule, the “Redroot pigweed plant response rating” value (pigweed; [2]) was 0, the “Redroot pigweed plant response rating” value (pigweed; Rate 62 g/ha, scale 0 to 10) was 0 and the “Redroot pigweed plant response rating” value (pigweed; [3]) was 0. For the same molecule, the “Plant response rating, Rape” value (rape; [1]) was 0, the “Rape plant response rating” value (rape; [2]) was 0 and the “Rape plant response rating” value (rape; Rate 62 g/ha, scale 0 to 10) was 0. For the same molecule, the “Rape plant response rating” value (rape; [3]) was 0, the “Plant response rating, Soybean” value (soybean; [1]) was 0 and the “Soybean plant response rating” value (soybean; [2]) was 0. For the same molecule, the “Soybean plant response rating” value (soybean; Rate 62 g/ha, scale 0 to 10) was 0, the “Soybean plant response rating” value (soybean; [3]) was 0 and the “Plant response rating, Sugarbeets” value (sugar beet; [1]) was 0. For the same molecule, the “Sugarbeets plant response rating” value (sugar beet; [2]) was 0, the “Sugarbeets plant response rating” value (sugar beet; Rate 62 g/ha, scale 0 to 10) was 0 and the “Sugarbeets plant response rating” value (sugar beet; [3]) was 0. The “Plant response rating, Velvetleaf” value (velvetleaf; [1]) was 0, the “Velvetleaf plant response rating” value (velvetleaf; [2]) was 0 and the “Velvetleaf plant response rating” value (velvetleaf; Rate 62 g/ha, scale 0 to 10) was 0. For the same molecule, the “Velvetleaf plant response rating” value (velvetleaf; [3]) was 0, the “Plant response rating, Wheat” value (wheat; [1]) was 0 and the “Wheat plant response rating” value (wheat; [2]) was 0. For the same molecule, the “Wheat plant response rating” value (wheat; Rate 62 g/ha, scale 0 to 10) was 0, the “Wheat plant response rating” value (wheat; [3]) was 0 and the “Plant response rating, Wild oats” value (wild oat; [1]) was 0. For the same molecule, the “Wild oats plant response rating” value (wild oat; [2]) was 0, the “Wild oats plant response rating” value (wild oat; Rate 62 g/ha, scale 0 to 10) was 0 and the “Wild oats plant response rating” value (wild oat; [3]) was 0. The “Nutsedge plant response rating” value (purple nutsedge; [2]) was 0, the “Nutsedge plant response rating” value (purple nutsedge; Rate 62 g/ha, scale 0 to 10) was 0 and the “Nutsedge plant response rating” value (purple nutsedge; [3]) was 0.
